# From patent US20230137216A1, “Stabilization of Pharmaceutical Compositions Comprising Polysorbate” (LEK Pharmaceuticals d.d., priority 2020, published 2023)
# Entries after “also recorded” stand apart in the source; their conditions may differ.
# Columns and labels:
# [1] = Accelerated stability testing of PS20 (polysorbate content by mixed-mode chromatography with CAD)
# Description: (§1) PS20 or PS80 obtained from different manufacturers (see Table 1) was dissolved in 20 mM aqueous buffer at pH 5.5 or 6.5 in a glass vial to a final concentration of 0.02% (w/v) polysorbate. The buffer salts used in the histidine buffers investigated were histidine chloride (HisCl) and various further histidine buffer salts (see below, all obtained from Sigma-Aldrich (now Merck KgaA)).
# (§2) Degradation mechanisms of the polysorbates were explored using 20 mM imidazole chloride and 20 mM alanine chloride buffer salts. Also, HisCl buffer salt comprising solutions were prepared with the additional excipients of mannitol or trehalose (both Sigma-Aldrich) to determine the influence of sugars and their derivatives on polysorbate degradation. Finally, two different mAbs were used as the active agent that each contained 10 mg/mL mAb, 0.02% PS80 HX2 and 20 mM HisCl buffer salt at pH 6.5. The therapeutic protein solutions were provided by Lek d.d. (Mengeš, Slovenia). In all cases, the starting point samples were collected immediately and stored at −80° C. The vials were then placed into a 50° C. incubator for up to 2 months, with samples collected at 1 month and further samples in some cases at 2 months. All of these samples were stored at −80° C. for subsequent analysis.
# (§3) The polysorbate contents were analysed and quantified using a method based on mixed-mode chromatography, as mixed anion exchange and reversed phase, combined with a charged aerosol detector (CAD). The external standard approach was used for quantification of the surfactants. Chromatographic analysis was carried out using the method of Hewitt et al. (Hewitt, D. et al. J. Chromatogr. A 1218, 2138-2145 (2011).
# (§4) Analytes were separated using a Waters Oasis MAX column (30 μm particle size, 2.1 mm×20 mm), column temperature 30° C., flow rate 1 ml/min and a total run time of 10 min. The injection volume was 10 μL. Initial conditions were set at 90% solvent A (2% formic acid in purified water) and 10% solvent B (2% formic acid in isopropanol). Solvent B was increased to 20% in the first minute and held for 2.4 min. POE sorbitan esters were eluted using a step gradient of 20% to 100% B over 0.1 min, followed by an equilibration step of 10% B for 0.9 min.
# [2] = Accelerated stability testing of PS80 (polysorbate content by mixed-mode chromatography with CAD)
# Description: as §1, §2, §3, §4
# [3] = Accelerated stability testing of PS80 HX2 (polysorbate content by mixed-mode chromatography with CAD); details: for degradation of polysorbate 80 HX2: 0.02% w/v PS80 HX2, 20 mM histidine buffer salt, pH 6.5, 50° C.; for degradation of PS80 HX2 in the presence of mAb1 / degradation of PS80 HX2 in the presence of mAb2: pH 6.5
# Description: as §1, §2, §3, §4
# [4] = as reported in prior work; cited from earlier work
# [5] = 0.02% w/v PS20, 20 mM histidine chloride, pH 6.5, 50° C., 1 month
# [6] = 0.02% w/v PS80, 20 mM histidine chloride, pH 6.5, 50° C., 1 month
molecule,measurement,setting,value
OC[C@H]1O[C@H](O[C@H]2O[C@H](CO)[C@@H](O)[C@H](O)[C@H]2O)[C@H](O)[C@@H](O)[C@@H]1O [trehalose],effect of added excipient on degradation of PS20,[1]; pH 6.5,did not slow down the degradation
same,effect of added excipient on degradation of PS80,[2]; pH 6.5,did not slow down the degradation
polyoxyethylene (20) sorbitan monooleate [PS80],rate of degradation compared with PS20 samples from the same manufacturer,[2]; pH 5.5,generally degrading faster
N[C@@H](Cc1cnc[nH]1)C(=O)O.O=C(O)CCC(=O)C(=O)O [histidine α-ketoglutarate],degradation of polysorbate 80 HX2,[3]; 1 month,major to almost complete degradation
OC[C@@H](O)[C@@H](O)[C@H](O)[C@H](O)CO [mannitol],effect of added excipient on degradation of PS20,[1]; pH 6.5,did not slow down the degradation
same,effect of added excipient on degradation of PS80,[2]; pH 6.5,did not slow down the degradation
alanine chloride,degradation of PS80 HX2,[3]; pH 5,no degradation
O=C(O)CN(CCN(CC(=O)O)CC(=O)O)CC(=O)O [EDTA],effect of added excipient on degradation of PS20,[1]; [5],did not slow down the degradation
same,effect of added excipient on degradation of PS80,[2]; [6],did not slow down the degradation
histidine glutarate,degradation of polysorbate 80 HX2,[3]; 1 month,major to almost complete degradation
histidine chloride [reference compound],degradation of PS80 HX2 in the presence of mAb1,[3],significant degradation
same,degradation of PS80 HX2 in the presence of mAb2,[3],significant degradation
same,degradation of PS20,[1]; pH 5.5,severe degradation
same,degradation of PS20 (Merck),[1]; pH 5.5,showed degradation
same,degradation of PS80,[2]; pH 5.5,severe degradation
same,degradation of PS80 (Merck),[2]; pH 5.5,showed degradation
Cl.c1c[nH]cn1 [imidazole chloride],degradation of PS80 HX2,"[3]; 0.02% w/v PS80 HX2, 20 mM buffer salt, AlaCl pH 5.0 or 6.0, ImiCl pH 5.0, 6.5 or 7.0, 50° C., 1 month",degraded almost entirely; also recorded: Polysorbate degradation was detected
[Cl-].[Na+] [NaCl],effect of added excipient on degradation of PS20,[1]; [5],did not slow down the degradation
same,effect of added excipient on degradation of PS80,[2]; [6],did not slow down the degradation
N[C@@H](Cc1c[nH]cn1)C(=O)O.O=C(O)CC(O)C(=O)O [histidine malate],degradation of PS80 HX2 in the presence of mAb1,[3],no significant degradation
same,degradation of PS80 HX2 in the presence of mAb2,[3],no significant degradation
same,degradation of PS20 (Merck),[1]; pH 5.5,significantly less degradation
same,degradation of PS80 (Merck),[2]; pH 5.5,significantly less degradation
CC(=O)O.N[C@@H](Cc1c[nH]cn1)C(=O)O [histidine acetate],oxidative degradation in buffer system of histidine and histidine acetate,[4],promoted oxidative degradation
